# Measured values: patent US20050049228A1, “Antimicrobial photodynamic therapy compound and method of use” (CeramOptec Industries Inc., priority 2003, published 2005)
# Key:
# Test in all cases: Photodynamic inactivation of bacterial cell suspensions (CFU count after 532 nm laser irradiation)
# Type in all cases: cell-based
# [1] = tested on: Staphylococcus aureus DSM1104 (ATCC 25923); conditions: cell suspensions in PBS and in PBS+10% horse blood serum, PBS+10% human plasma, 10 μM, 100 μM, 1 mM, 30 min dark incubation, about 100 J/cm^2
# Experimental: (§1) The organisms used in our studies were three members of the microflora of wounds: Staphylococcus aureus DSM1104 (A TCC 25923), Gram-positive; Escherichia coli DSM 8698, Gram-negative; Pseudomonas aeruginosa DSM 1117 (ATCC 27853), Gram-negative. All strains were grown aerobically overnight at 37° C. in Tryptic Soy Broth (Merck KGaA Darmstadt, Germany). Cells were harvested by centrifugation and resuspended in sterile phosphate-buffered saline (PBS) or sterile PBS supplemented with 10% sterile horse blood serum (Oxoid), 10% human plasma or 10% human blood (both freshly obtained from donors), respectively. The final OD (Optical Density) at 600 nm, 1 cm in all cases was 0.03.
# (§2) Aliquots (190 μl) of the bacterial suspensions were placed into sterile black 96 well plates with clear bottom (Costar® 3603, Corning Inc., USA). 10 μl of three different Safranin O stock solutions were added to obtain the final photosensitizer concentrations of 10 μM, 100 μM and 1 mM, respectively. The plates were incubated for 30 minutes in the dark at room temperature.
# (§3) After incubation the samples were exposed to light from a laser Ceralas G2 (biolitec AG, Germany), 532 nm, power set to 0.5 W, irradiation time of […] via a light fiber from the bottom of the plate. The fluence rate for these settings was about 1.2 W/cm^2 (measured with Optometer P-9710, Gigahertz-Optik GmbH, Puchheim, Germany). With the irradiation time, the resulting energy fluence was about 100 J/cm^2.
# (§4) Control wells contained no Safranin O and were not exposed to laser light. The control samples for dark toxicity were only exposed to Safranin O (end concentration of 1 mM) without any illumination.
# (§5) After illumination the samples were removed from the wells of the plate, diluted with Tryptic Soy Broth and plated by using spiral plater Eddy Jet (iul Instruments, Barcelona, Spain) on Tryptic Soy agar plates. The numbers of colony-forming units (CFU/ml) were enumerated after adequate incubation by using colony counter Countermat Flash (iul Instruments, Barcelona, Spain).
# [2] = tested on: Pseudomonas aeruginosa DSM 1117 (ATCC 27853); conditions: in presence of blood serum or plasma in the treatment suspensions, 10 μM, 100 μM, 1 mM, 30 min dark incubation, about 100 J/cm^2
# Experimental: as §1, §2, §3, §4, §5
# [3] = tested on: Escherichia coli DSM 8698; conditions: in presence of blood serum or plasma in the treatment suspensions, 10 μM, 100 μM, 1 mM, 30 min dark incubation, about 100 J/cm^2
# Experimental: as §1, §2, §3, §4, §5
smiles,measurement,setting,value
Cc1cc2nc3cc(C)c(N)cc3[n+](-c3ccccc3)c2cc1N.[Cl-] [Safranin O],killing effect by PDT treatment,[1],very good killing effect
same,killing of cell suspensions by PDT treatment,[2],sufficient killing
same,killing of cell suspensions by PDT treatment,[3],sufficient killing
